Measurements published in patent US7129352B2, “Crystalline salts of 7-′4-(4-fluorophenyl) -6-isopropyl-2-′methyl (methylsulfonyl) amino!pyrimidin-5-yl!- (3R, 5S) -3, 5-dihydroxyhept-6-enoic acid” (AstraZeneca AB, priority 2000, dated 2006).

What was measured:
[1] = hygroscopicity of the crystalline salt; format: physicochemical
[2] = solubility profile of the crystalline salt; format: physicochemical

For “tris(hydroxymethyl)methylammonium (E)-7-[4-(4-fluorophenyl)-6-isopropyl-2-[methyl(methylsulfonyl)amino]pyrimidin-5-yl]-(3R,5S)-3,5-dihydroxyhept-6-enoate [Example 2]”, the hygroscopicity [1] was “non-hygroscopic” and the solubility profile [2] was “advantageous solubility profile”.
